Measurements taken from ChEMBL document CHEMBL3797039, “Bcl-2/MDM2 Dual Inhibitors Based on Universal Pyramid-Like α-Helical Mimetics” (J Med Chem, 2016).
The source made the active and inactive calls. No cut-off for these calls is given here.

Tests used:
[1] = biological target: T1, E3 ubiquitin-protein ligase Mdm2 (Homo sapiens, UniProt Q00987); test: Displacement of FAM-p53TAD peptide from N-terminal 8x His-tagged human MDM2 (25 to 108 residues) expressed in Escherichia coli BL21 (DE3) after 30 mins by fluorescence polarization assay
Target sequence in this assay (Q00987 whole entry, the tested form may be a part): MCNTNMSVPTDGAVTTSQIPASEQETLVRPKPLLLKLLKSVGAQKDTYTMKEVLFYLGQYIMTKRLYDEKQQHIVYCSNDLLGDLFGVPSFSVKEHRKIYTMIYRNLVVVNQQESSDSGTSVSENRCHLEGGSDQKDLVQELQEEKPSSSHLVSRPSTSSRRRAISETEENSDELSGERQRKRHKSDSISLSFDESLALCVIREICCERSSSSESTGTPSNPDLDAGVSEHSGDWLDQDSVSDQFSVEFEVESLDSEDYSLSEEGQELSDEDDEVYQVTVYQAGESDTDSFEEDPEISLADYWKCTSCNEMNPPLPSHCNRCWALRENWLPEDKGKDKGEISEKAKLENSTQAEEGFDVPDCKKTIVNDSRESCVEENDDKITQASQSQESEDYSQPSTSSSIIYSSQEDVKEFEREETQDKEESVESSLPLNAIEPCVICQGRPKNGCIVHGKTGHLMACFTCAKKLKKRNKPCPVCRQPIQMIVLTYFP

[2] = biological target: T2, Apoptosis regulator Bcl-2 (Homo sapiens, UniProt P10415); test: Displacement of FAM-Bid peptide from N-terminal 8x His-tagged Bcl-2 (unknown origin) expressed in Escherichia coli BL21 (DE3) after 30 mins by fluorescence polarization assay
[3] = biological target: T3, Induced myeloid leukemia cell differentiation protein Mcl-1 (Homo sapiens, UniProt Q07820); test: Displacement of FAM-Bid peptide from N-terminal 8x His-tagged MCl-1 (unknown origin) expressed in Escherichia coli BL21 (DE3) after 30 mins by fluorescence polarization assay
[4] = Cell cycle arrest in human HCT116 p53-/- cells assessed as accumulation at G1 phase at 10 uM after 24 hrs by propidium iodide staining-based flow cytometric method (reference value: 28%); type: functional; details: HCT-116
[5] = Cell cycle arrest in human HCT116 p53+/+ cells assessed as accumulation at S phase at 5 uM after 24 hrs by propidium iodide staining-based flow cytometric method (reference value: 42%); type: functional; details: HCT-116
[6] = biological target: T3, Induced myeloid leukemia cell differentiation protein Mcl-1; test: Inhibition of Mcl-1/Bax interaction in human DMS53 cells harboring p53 mutant at 5 to 10 uM after 12 hrs by immunoprecipitation method; type: cell-based; details: DMS-53
[7] = Cell cycle arrest in human HCT116 p53-/- cells assessed as accumulation at S phase at 10 uM after 24 hrs by propidium iodide staining-based flow cytometric method (reference value: 36%); type: functional; details: HCT-116
[8] = Cell cycle arrest in human HCT116 p53+/+ cells assessed as accumulation at <G1 phase at 5 uM after 24 hrs by propidium iodide staining-based flow cytometric method (reference value: 0.3%); type: functional; details: HCT-116
[9] = biological target: T2, Apoptosis regulator Bcl-2; test: Binding affinity to 15N-labeled Bcl-2 (unknown origin) by 2D 1H-15N HSQC NMR spectroscopic method
[10] = biological target: T2, Apoptosis regulator Bcl-2; test: Inhibition of BCl-2/Bim interaction in human DMS53 cells harboring p53 mutant at 5 to 10 uM after 12 hrs by immunoprecipitation method; type: cell-based; details: DMS-53
[11] = Cell cycle arrest in human HCT116 p53+/+ cells assessed as accumulation at G2/M phase at 5 uM after 24 hrs by propidium iodide staining-based flow cytometric method (reference value: 26%); type: functional; details: HCT-116
[12] = Cell cycle arrest in human HCT116 p53+/+ cells assessed as accumulation at G1 phase at 5 uM after 24 hrs by propidium iodide staining-based flow cytometric method (reference value: 31%); type: functional; details: HCT-116
[13] = biological target: T2, Apoptosis regulator Bcl-2; test: Inhibition of BCl-2/Bax interaction in human DMS53 cells harboring p53 mutant at 5 to 10 uM after 12 hrs by immunoprecipitation method; type: cell-based; details: DMS-53
[14] = biological target: T3, Induced myeloid leukemia cell differentiation protein Mcl-1; test: Inhibition of Mcl-1/Bim interaction in human DMS53 cells harboring p53 mutant at 5 to 10 uM after 12 hrs by immunoprecipitation method; type: cell-based; details: DMS-53
[15] = Cell cycle arrest in human HCT116 p53-/- cells assessed as accumulation at G2/M phase at 10 uM after 24 hrs by propidium iodide staining-based flow cytometric method (reference value: […]%); type: functional; details: HCT-116
[16] = Cell cycle arrest in human HCT116 p53-/- cells assessed as accumulation at <G1 phase at 10 uM after 24 hrs by propidium iodide staining-based flow cytometric method (reference value: 0.6%); type: functional; details: HCT-116
DMS-53 [17] = test: Induction of apoptosis in human DMS53 cells harboring p53 mutant assessed as cytochrome c release at 5 to 10 uM after 12 hrs by immunoblotting method; type: functional, cell-based
HCT-116 [18] = test: Effect on p53 expression in human HCT116 p53-/- cells at 10 to 20 uM after 12 hrs by immunoblotting method; type: functional, cell-based
[19] = biological target: T3, Induced myeloid leukemia cell differentiation protein Mcl-1; test: Binding affinity to N-terminal 8x His-tagged MCl-1 (unknown origin) expressed in Escherichia coli BL21 (DE3) by isothermal titration microcalorimetric method
HCT-116 [20] = test: Effect on MDM2 expression in human HCT116 p53-/- cells at 10 to 20 uM after 12 hrs by immunoblotting method; type: functional, cell-based
[21] = biological target: T2, Apoptosis regulator Bcl-2; test: Binding affinity to N-terminal 8x His-tagged Bcl-2 (unknown origin) expressed in Escherichia coli BL21 (DE3) by isothermal titration microcalorimetric method
HCT-116 [22] = test: Effect on p21 expression in human HCT116 p53-/- cells at 10 to 20 uM after 12 hrs by immunoblotting method; type: functional, cell-based
DMS-53 [23] = test: Induction of apoptosis in human DMS53 cells harboring p53 mutant assessed as caspase-3 cleavage at 5 to 10 uM after 12 hrs by immunoblotting method; type: functional, cell-based
[24] = biological target: T1, E3 ubiquitin-protein ligase Mdm2; test: Binding affinity to N-terminal 8x His-tagged human MDM2 (25 to 108 residues) expressed in Escherichia coli BL21 (DE3) by isothermal titration microcalorimetric method
Target sequence in this assay (Q00987 whole entry, the tested form may be a part): as above

[25] = Upregulation of p53 mRNA expression in human HCT116 p53+/+ cells at 10 uM after 12 hrs by qPCR method; type: functional, cell-based; details: HCT-116
DMS-53 [26] = test: Induction of apoptosis in human DMS53 cells harboring p53 mutant assessed as PARP cleavage at 5 to 10 uM after 12 hrs by immunoblotting method; type: functional, cell-based
[27] = biological target: T1, E3 ubiquitin-protein ligase Mdm2; test: Inhibition of MDM2-p53 interaction in human HCT116 p53+/+ cells assessed as upregulation of MDM2 expression at 5 to 10 uM after 12 hrs by immunoblotting method; type: cell-based; details: HCT-116
Target sequence in this assay (Q00987 whole entry, looked up, the tested form may be a part): as the sequence (Q00987 whole entry, the tested form may be a part) above

[28] = biological target: T1, E3 ubiquitin-protein ligase Mdm2; test: Inhibition of MDM2-p53 interaction in human HCT116 p53+/+ cells assessed as upregulation of p21 expression at 5 to 10 uM after 12 hrs by immunoblotting method; type: cell-based; details: HCT-116
Target sequence in this assay (Q00987 whole entry, looked up, the tested form may be a part): as the sequence (Q00987 whole entry, the tested form may be a part) above

[29] = biological target: T1, E3 ubiquitin-protein ligase Mdm2; test: Inhibition of MDM2-p53 interaction in human HCT116 p53+/+ cells assessed as upregulation of p53 expression at 5 to 10 uM after 12 hrs by immunoblotting method; type: cell-based; details: HCT-116
Target sequence in this assay (Q00987 whole entry, looked up, the tested form may be a part): as the sequence (Q00987 whole entry, the tested form may be a part) above

HCT-116 [30] = test: Induction of apoptosis in human HCT116 p53+/+ cells after 48 hrs by Annexin V-FITC staining-based flow cytometric method; type: functional, cell-based

T2 sequence (P10415 whole entry): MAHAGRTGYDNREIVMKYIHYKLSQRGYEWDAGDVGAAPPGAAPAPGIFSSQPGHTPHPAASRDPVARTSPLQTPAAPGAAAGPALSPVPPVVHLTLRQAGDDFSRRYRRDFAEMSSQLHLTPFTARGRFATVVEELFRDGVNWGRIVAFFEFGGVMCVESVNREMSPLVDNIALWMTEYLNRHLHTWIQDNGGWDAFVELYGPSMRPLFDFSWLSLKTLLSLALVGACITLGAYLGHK
T3 sequence (Q07820 whole entry): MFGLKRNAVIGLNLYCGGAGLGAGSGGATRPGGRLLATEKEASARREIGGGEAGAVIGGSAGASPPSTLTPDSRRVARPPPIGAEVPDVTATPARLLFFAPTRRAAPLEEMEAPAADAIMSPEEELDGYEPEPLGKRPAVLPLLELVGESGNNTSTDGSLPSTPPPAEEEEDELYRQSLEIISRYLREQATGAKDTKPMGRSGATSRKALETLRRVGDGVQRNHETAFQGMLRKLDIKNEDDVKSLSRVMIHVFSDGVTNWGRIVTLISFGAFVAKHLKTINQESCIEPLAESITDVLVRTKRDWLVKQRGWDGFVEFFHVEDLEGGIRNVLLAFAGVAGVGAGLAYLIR

Compound | Ki [1] | Ki [2] | Ki [3] | also measured
O=C(O)c1cc(-c2ccccc2)n(-c2ccccc2)n1 | > 25 µM | > 10 µM | > 10 µM | 
CC(C)COc1ccc(-c2cc(C(=O)O)nn2-c2ccccc2)cc1 | 7.42 µM | > 10 µM | 8.11 µM | 
CCOc1ccc(-c2cc(C(=O)O)nn2-c2ccccc2)cc1 | 3.26 µM | 6.09 µM | 3.8 µM | 
O=C(O)c1cc(-c2ccc(OCc3ccccc3)cc2)n(-c2ccccc2)n1 | 19.8 µM | > 10 µM | > 10 µM | 
CC(C)Oc1ccc(C(=O)Nc2c(C(=O)O)nn(-c3ccc(C(C)C)cc3)c2-c2ccc(OCc3ccccc3)cc2)cc1 | 2.19 µM | > 10 µM | 2.6 µM | 
CC(C)Oc1ccc(-c2cc(C(=O)O)nn2-c2ccccc2)cc1 | 2.29 µM | 7 µM | 3.62 µM | 
COc1ccc(C2=N[C@@H](c3ccc(Cl)cc3)[C@@H](c3ccc(Cl)cc3)N2C(=O)N2CCNC(=O)C2)c(OC(C)C)c1 [NUTLIN-3] |  | > 10 µM | > 10 µM | Activity [4]: 29%; Activity [5]: 8%; inhibition [6]: inactive; Activity [7]: 35%; Activity [8]: 0.9%; Kd [9]: 15 µM; inhibition [10]: inactive; Activity [11]: 49%; Activity [12]: 41%; inhibition [13]: inactive; inhibition [14]: inactive; Activity [15]: 34%; Activity [16]: 0.8%
Cc1cc2c(C(C)C)c(O)c(O)c(C=O)c2c(O)c1-c1c(C)cc2c(C(C)C)c(O)c(O)c(C=O)c2c1O [GOSSYPOL] | > 25 µM |  | 0.26 µM | 
CC(C)Oc1ccc(C(=O)Nc2c(C(=O)O)nn(-c3ccc(Oc4ccccc4)cc3)c2-c2ccc(OCc3ccccc3)cc2)cc1 | 4.47 µM | > 10 µM | > 10 µM | 
CN(C)CC[C@H](CSc1ccccc1)Nc1ccc(S(=O)(=O)NC(=O)c2ccc(N3CCN(Cc4ccccc4-c4ccc(Cl)cc4)CC3)cc2)cc1[N+](=O)[O-] |  |  |  | Activity [4]: 26%; inhibition [27]: inactive; Activity [5]: 40%; Activity (DMS-53 [17]): Active; inhibition [28]: inactive; Activity [7]: 32%; Activity [8]: 7.1%; Activity (DMS-53 [23]): Active; inhibition [29]: inactive; inhibition [10]: Active; Activity [11]: 24%; Activity [12]: 28%; inhibition [13]: Active; Activity (DMS-53 [26]): Active; Activity (HCT-116 [30]): Active; Activity [15]: 34%; Activity [16]: 6.4%

Second part, led by results:

Ki [1] | Ki [2] | Ki [3] | Compound | also measured
1.03 µM | 0.694 µM | 0.451 µM | CCOc1ccc(-c2cc(C(=O)O)nn2-c2ccc(Oc3ccccc3)cc2)cc1 | 
2.14 µM | 5.25 µM | 2.39 µM | CC(C)Oc1ccc(-c2cc(C(=O)O)nn2-c2ccc(C(C)C)cc2)cc1 | 
0.689 µM | 0.406 µM | 0.404 µM | CCOc1ccc(-c2c(NC(=O)c3ccc(C(C)(C)C)cc3)c(C(=O)O)nn2-c2ccc(Oc3ccccc3)cc2)cc1 | 
0.422 µM | 1.4 µM | 0.722 µM | CC(C)COc1ccc(C(=O)Nc2c(C(=O)O)nn(-c3ccc(Oc4ccccc4)cc3)c2-c2ccc(OC(C)C)cc2)cc1 | 
0.107 µM | 0.14 µM | 0.161 µM | CC(C)Oc1ccc(C(=O)Nc2c(C(=O)O)nn(-c3ccc(Oc4ccccc4)cc3)c2-c2ccc(OC(C)C)cc2)cc1 | Activity [4]: 30%; Activity [5]: 6%; Activity (DMS-53 [17]): Active; Activity (HCT-116 [18]): inactive; Kd [19]: 0.265 µM; Activity [7]: 33%; Activity [8]: 6.8%; Activity (HCT-116 [20]): inactive; Kd [21]: 0.29 µM; Activity (HCT-116 [22]): inactive; Activity (DMS-53 [23]): Active; Activity [11]: 47%; Activity [12]: 40%; Kd [24]: 0.472 µM; Activity [25]: inactive; Activity (DMS-53 [26]): Active; Activity [15]: 31%; Activity [16]: 5.2%
0.446 µM | 1.04 µM | 0.393 µM | CCOc1ccc(-c2c(NC(=O)c3ccc(OCC(C)C)cc3)c(C(=O)O)nn2-c2ccc(Oc3ccccc3)cc2)cc1 | 
0.301 µM | 0.028 µM | 0.081 µM | CCOc1ccc(-c2c(NC(=O)c3ccc(OC(C)C)cc3)c(C(=O)O)nn2-c2ccc(Oc3ccccc3)cc2)cc1 | 
0.616 µM | 0.385 µM | 0.226 µM | CC(C)c1ccc(-n2nc(C(=O)O)cc2-c2ccc(OCc3ccccc3)cc2)cc1 | 
1.13 µM | 0.855 µM | 0.635 µM | CCOc1ccc(-c2c(NC(=O)c3ccccc3)c(C(=O)O)nn2-c2ccc(Oc3ccccc3)cc2)cc1 | 
> 25 µM | 0.056 µM | 0.079 µM | CC(C)c1ccc2/c(=N\c3ccc(Oc4ccccc4)cc3)c3cc(O)c(O)c(O)c3n(C(=O)c3ccc(C(C)(C)C)cc3)c2c1 | 
0.712 µM | 0.932 µM | 0.371 µM | CC(C)Oc1ccc(-c2cc(C(=O)O)nn2-c2ccc(Oc3ccccc3)cc2)cc1 | 
4.28 µM | 5.16 µM | 4.52 µM | COC(=O)c1nn(-c2ccc(Oc3ccccc3)cc2)c(-c2ccc(OC(C)C)cc2)c1NC(=O)c1ccc(OC(C)C)cc1 | 
24.3 µM | 0.207 µM | 0.247 µM | Cc1ccc(/N=c2\c3ccc(C)cc3n(C(=O)c3ccc(C(C)(C)C)cc3)c3c(O)c(O)c(O)cc23)cc1 | 
